# From patent publication US20120309812A1 (SYNGENTA CROP PROTECTION LLC, priority 2010, published 2012)
# Legend:
# Myzus persicae = Myzus persicae (Green peach aphid) sunflower leaf disc spray test; assay type: in vivo; details: application rate 200 ppm, sprayed sunflower leaf discs, aphid population of mixed ages, mortality 6 DAT
# Protocol: Myzus persicae (Green peach aphid):
# Sunflower leaf discs were placed on agar in a 24-well microtiter plate and sprayed with test solutions at an application rate of 200 ppm. After drying, the leaf discs were infested with an aphid population of mixed ages. After an incubation period of 6 DAT, samples were checked for mortality. The following compound gave at least 80% control of Myzus persicae: A3.
melting point [°C],Structure (SMILES),control of Myzus persicae (Myzus persicae)
,COc1c(NC(=O)c2ccccc2)cccc1C(=O)Nc1c(Cl)cc(C(F)(c2ccc(Cl)cc2)C(F)(F)F)cc1Cl (centres unmarked) [A3],at least 80%
197 to 199,"O=C(Nc1c(Cl)cc(C(F)(c2ccsc2)C(F)(F)F)cc1Cl)c1cccc(NC(=O)c2c(F)cc(F)cc2F)c1F (centres unmarked) [A5, N-{3-[2,6-Dichloro-4-(2,2,2-trifluoro-1-fluoro-1-thiophen-3-ylethyl)-phenylcarbamoyl]-2-fluorophenyl}-2,4,6-trifluorobenzamide]",
